# Experimental data reported in article PMC11945486, “TAS1R2/TAS1R3 Single-Nucleotide Polymorphisms Affect Sweet Taste Receptor Activation by Sweeteners: The SWEET Project” (Nutrients, 2025).
# Target: T1, human TAS1R2-WT (subunit alone) (Homo sapiens, UniProt Q8TE23)
# T1 construct: expressed in transfected cells; host or cells: HEK293T-Gα16gust44
# T1 sequence (Q8TE23 20-839): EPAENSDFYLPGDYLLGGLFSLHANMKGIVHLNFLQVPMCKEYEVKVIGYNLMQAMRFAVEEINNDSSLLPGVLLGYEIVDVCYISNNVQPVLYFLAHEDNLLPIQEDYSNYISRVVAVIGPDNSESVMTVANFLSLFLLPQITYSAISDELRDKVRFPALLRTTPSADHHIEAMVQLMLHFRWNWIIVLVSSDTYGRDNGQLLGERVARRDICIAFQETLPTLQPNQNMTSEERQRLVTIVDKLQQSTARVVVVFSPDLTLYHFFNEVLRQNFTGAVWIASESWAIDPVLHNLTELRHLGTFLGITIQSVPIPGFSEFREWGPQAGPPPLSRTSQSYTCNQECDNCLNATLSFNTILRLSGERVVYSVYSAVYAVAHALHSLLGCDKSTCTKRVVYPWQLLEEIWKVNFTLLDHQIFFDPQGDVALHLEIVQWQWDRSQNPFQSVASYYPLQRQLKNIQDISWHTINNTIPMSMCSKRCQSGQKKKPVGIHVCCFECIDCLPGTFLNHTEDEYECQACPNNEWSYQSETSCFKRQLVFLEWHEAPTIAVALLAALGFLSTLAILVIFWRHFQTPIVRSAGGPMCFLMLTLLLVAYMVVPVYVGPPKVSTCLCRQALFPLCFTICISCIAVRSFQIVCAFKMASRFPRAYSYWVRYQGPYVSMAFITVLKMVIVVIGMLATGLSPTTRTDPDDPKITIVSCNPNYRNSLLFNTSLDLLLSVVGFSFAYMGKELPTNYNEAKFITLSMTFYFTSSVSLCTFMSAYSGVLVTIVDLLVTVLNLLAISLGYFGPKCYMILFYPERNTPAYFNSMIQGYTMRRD
# Assay: Calcium mobilisation assay, TAS1R2-WT subunit alone
# Type: cell-based
# Text: The coding sequences for TAS1R2 and TAS1R3 were commercially synthesised, and the human codon was optimised for expression in human cells. The coding sequences of human TAS1R2 and TAS1R3 were subcloned and inserted into the mammalian expression vectors pcDNA6/myc-HisA and pcDNA4/myc-HisA (Invitrogen; Thermo Fisher Scientific; Illkirch, France) between the EcoRI and NotI restriction sites, generating the plasmids pcDNA6-TAS1R2 and pcDNA4-TAS1R3, respectively. To increase protein expression in mammalian cells, an upstream start codon was used, which was a sequence called MAX, corresponding to the QBI SP163 element also described in pcDNA4-HisMax (Invitrogen; Thermo Fisher Scientific; Illkirch, France). To measure the expression level of the receptor by immunohistochemistry, we used the FLAG sequence ([…]) in the C-terminal position, which encodes the FLAG tag epitope. […]
# The HEK293T cells were kindly provided by Jay P. Slack (Givaudan Flavors Corporation; Cincinnati, OH, USA). […] The fluorescence intensity was measured for 90 s (excitation 488 nm, emission 510 nm) in an automated fluorometric FlexStation®3 Multi-Mode microplate reader (Molecular Devices; San Jose, CA, USA). […] The Ca^2+ changes were expressed as fractional changes in fluorescent light intensity: ΔF/F = (F − F0)/F0, where F was the fluorescent light intensity at each point, and F0 was the value of emitted fluorescent light prior to stimulus application. To calculate dose–response relationships, the changes in fluorescence upon stimulus application were averaged, mock-subtracted and baseline-corrected. […] The half-maximal effective concentrations (EC50 values) and maximal signal amplitudes were calculated using SigmaPlot software (version 15.0) (Systat Software; San Jose, CA, USA).
# For in vitro calcium mobilisation assay performed on hTAS1R2-SNPs, hTAS1R3-SNPs and mTAS1R3-I60T, 6 to 7 concentrations were tested for each sweet compound, plus buffer alone. All concentration–receptor combinations were measured in duplicate, and each experiment was repeated at least 4 times (8 wells/concentration). […]
smiles,measurement,setting,value
"C=C(C)[C@@H]1CC=C(/C=N/O)CC1 [Perillartine, perillartine]",EC50,,90 ± 17 µM
same,R1 = Variant EC50/WT EC50,,1.0
same,Max ΔF/F0,maximal signal amplitude,1.06 ± 0.06
